Common to all, as to experiment: ITC
For orientation: In ITC the heat of successive injections is recorded.

Experiment [1] concerns AI-TES-R3R5HD-T (DNA, aptamer) GGACGACGGGGATTTGGGGTTTTCTATGTTTTTCGTCCTTTTTTTGCTGCGTTCTCCATTCTGG
Experiment [2] concerns CS-R5MP (DNA, aptamer) GGCTCTCGGGACGACGGGGATTTTTGGTGCACTATGTGGTTCGTTCGGGGTGGGCTGCGTTCTCCATTCTGG
The following applies: one-site fit.

Experiment [3] concerns CS-R7MP-T (DNA, aptamer) CGGGACGACGGGGATTTTATTTGCACTATGTGGCTCGTTCGGGGTGTGCTGCGTTCTCCATTCTGG
The following applies: one-site fit.

Setting [4] is: one-site fit, aptamer identified from Figure 3e legend.

Where two headings read alike, the source gives them in different places.

The term KD denotes the equilibrium constant for the complex coming apart. The compound `CC(=O)[C@H]1CC[C@H]2[C@@H]3CCC4=CC(=O)CC[C@]4(C)[C@H]3CC[C@]12C` came in with a KD in experiment [1] (setting [4]) of 9.38 µM.

Regarding `C[C@]12CC[C@@H]3c4ccc(O)cc4CC[C@H]3[C@@H]1CC[C@@H]2O`, the KD in experiment [1] (setting [4]) was determined as 6.22 µM.

Turning to `C[C@]12CCC(=O)C=C1CC[C@@H]1[C@@H]2[C@@H](O)C[C@@]2(C)[C@H]1CC[C@]2(O)C(=O)CO`, the results for the KD in experiment [2] and in experiment [3] were ~ 2.41 μM and 5.1 µM, respectively.

In turn, `C[C@]12CC[C@H]3[C@@H](CCC4=CC(=O)CC[C@@]43C)[C@@H]1CC[C@@H]2O` displayed an equilibrium dissociation constant (KD) in experiment [1] of 0.313 µM.

These data come from PMC12713628 (2025).
